Assay results reported in US20260209199A1, “TRISULFIDE COMPOUND” (Kyowa Pharma Chemical Co., Ltd., priority 2022, published 2026).

Columns and labels:
[1] = Octanol/water partition coefficient (log P), HPLC; settings: octanol/purified water, log10(concentration in octanol layer/concentration in aqueous layer)
Method: (§1) Then, 10 mL of octanol was added to each aqueous solution and shaken for 1 minute. 2 mL each was taken from the aqueous layer and the octanol layer, centrifuged, and allowed to stand for 1 hour. 1 mL was precisely measured from the standing solution, 2-propanol was added, and the volume was made up to 10 mL. […] (log P=log10 (concentration in octanol layer/concentration in aqueous layer))

[2] = disclosed in Patent Literature 2 (WO2022/045052); cited from earlier work

Method for physchem: as §1

SMILES | logP (physchem) | Partition coefficient (logP) [1] | hydrogen sulfide elimination effect [2]
CC(=O)OCC(C)(C)[C@@H](O)C(=O)NCCC(=O)NCCSSSCCNC(=O)CCNC(=O)[C@H](O)C(C)(C)COC(C)=O [Ac-PTN-SSS, acetyl derivative of pantethine trisulfide] | 0.91 | – | –
CC1(C)OCC(C)(C)[C@H](C(=O)NCCC(=O)NCCSSSCCNC(=O)CCNC(=O)[C@@H]2OC(C)(C)OCC2(C)C)O1 [Acetonide-PTN-SSS, acetonide derivative of pantethine trisulfide] | 1.56 | – | –
CC(C)(CO)[C@@H](O)C(=O)NCCC(=O)NCCSSSCCNC(=O)CCNC(=O)[C@H](O)C(C)(C)CO [PTN-SSS, Pantethine trisulfide] | – | −0.39 | has a hydrogen sulfide elimination effect
